Consider 30 compounds from patent US9394311B2, “Triazolo compounds as PDE10 inhibitors” (Hoffmann-La Roche Inc., priority 2012, dated 2016).

Broadly, the IC50 is the concentration that gives 50% inhibition. A lower IC50 goes with greater potency in that assay.

Structures are written as SMILES.

Sequence of human PDE10A (Q9Y233 other isoform, or with tags, fused parts or gaps): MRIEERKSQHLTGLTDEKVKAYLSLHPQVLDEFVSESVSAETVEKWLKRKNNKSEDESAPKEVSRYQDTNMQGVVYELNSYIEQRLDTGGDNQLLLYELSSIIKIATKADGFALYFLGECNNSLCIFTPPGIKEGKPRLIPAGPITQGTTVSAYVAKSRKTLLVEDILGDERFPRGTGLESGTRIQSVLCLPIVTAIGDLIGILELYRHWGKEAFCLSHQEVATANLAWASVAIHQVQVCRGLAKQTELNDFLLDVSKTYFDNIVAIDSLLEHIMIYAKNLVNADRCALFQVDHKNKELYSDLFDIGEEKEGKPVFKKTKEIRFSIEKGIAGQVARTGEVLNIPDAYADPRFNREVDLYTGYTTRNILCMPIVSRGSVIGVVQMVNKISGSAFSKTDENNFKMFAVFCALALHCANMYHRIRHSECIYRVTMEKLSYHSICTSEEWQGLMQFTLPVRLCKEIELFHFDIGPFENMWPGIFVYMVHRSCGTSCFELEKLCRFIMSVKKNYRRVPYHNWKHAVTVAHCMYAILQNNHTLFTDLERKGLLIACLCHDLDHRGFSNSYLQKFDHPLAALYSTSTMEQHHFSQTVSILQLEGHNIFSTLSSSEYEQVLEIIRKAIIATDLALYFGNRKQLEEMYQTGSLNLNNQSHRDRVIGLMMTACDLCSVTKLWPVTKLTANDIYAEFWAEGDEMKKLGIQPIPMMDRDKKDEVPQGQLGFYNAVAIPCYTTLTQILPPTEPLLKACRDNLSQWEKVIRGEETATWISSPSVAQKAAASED

This assay has as its target human PDE10A (Homo sapiens (Human), UniProt Q9Y233). The experiment in a line: human PDE10A full length Scintillation Proximity Assay (SPA). It is filed as biochemical. To be noted: PDE10A full length enzyme, 50 nM cGMP / [3H]-cGMP substrate, 20 minutes at room temperature. Here is the method: The following test was carried out in order to determine the activity of the compounds of the present invention. PDE10 activity of the compounds of the present invention was determined using a Scintillation Proximity Assay (SPA)-based method similar to the one previously described (Fawcett, L. et al., Proc Natl Acad Sci USA (2000) 97(7):3702-3707).
The human PDE10A full length assay was performed in 96-well micro titer plates. The reaction mixture of 50 μl contained 20 mM HEPES pH=7.5/10 mM MgCl2/0.05 mg/ml BSA (Sigma cat. # A-7906), 50 nM cGMP (Sigma, cat. # G6129) and 50 nM [3H]-cGMP (GE Healthcare, cat. # TRK392 S.A. 13.2 Ci/mmol), 3.75 ng/well PDE10A enzyme (Enzo Life Science, Lausen, Switzerland cat # SE-534) with or without a specific test compound. A range of concentrations of the potential inhibitor was used to generate data for calculating the concentration of inhibitor resulting in 50% of the effect (e.g. IC50, the concentration of the competitor inhibiting PDE10A activity by 50%). Non-specific activity was tested without the enzyme. The reaction was initiated by the addition of the substrate solution (cGMP and [3H]-cGMP) and allowed to progress for 20 minutes at room temperature. The reaction was terminated by adding 25 μl of YSi-SPA scintillation beads (GE Healthcare, cat. # RPNQ0150) in 18 mM zinc sulphate solution (stop reagent). After 1 h under shaking, the plate was centrifuged one minute at 170 g to allow beads to settle. Afterwards, radioactive counts were measured on a Perkin Elmer Top-Count Scintillation plate reader.
As to `Cc1cc(C)n2nc(CCc3nc(N4CCCC4)nn3CC(F)(F)F)nc2n1` [Example 22, 5,7-Dimethyl-2-{2-[5-pyrrolidin-1-yl-2-(2,2,2-trifluoro-ethyl)-2H-[1,2,4]triazol-3-yl]-ethyl}-[1,2,4]triazolo[1,5-a]pyrimidine], the half-maximal inhibitory concentration (IC50) came out at 20.4 nM.

Compound `Cc1cccc2nc(CCc3nc(N4CCCC4)nn3C)nn12` [Example 29, 5-Methyl-2-(2-(1-methyl-3-(pyrrolidin-1-yl)-1H-1,2,4-triazol-5-yl)ethyl)-[1,2,4]triazolo[1,5-a]pyridine] came in with an IC50 of 55.9 nM.

Regarding `Cc1cc(C)n2nc(CCc3nc(N(C)C4CC4)nn3C)nc2n1` [Example 34, Cyclopropyl-{5-[2-(5,7-dimethyl-[1,2,4]triazolo[1,5-a]pyrimidin-2-yl)-ethyl]-1-methyl-1H-[1,2,4]triazol-3-yl}-methyl-amine], the IC50 turned out to be 128 nM.

Take `Cc1c(Cl)cc(Cl)c2nc(CCc3n[nH]c(N4CCCC4)n3)nn12` [Example 68, 6,8-Dichloro-5-methyl-2-[2-(5-pyrrolidin-1-yl-1H-[1,2,4]triazol-3-yl)-ethyl]-[1,2,4]triazolo[1,5-a]pyridine]: half-maximal inhibition (IC50) was put at 0.22 nM.

Consider `Cc1ncc(C)n2nc(CCc3nc(N4CCCC4=O)nn3C)nc12` [Example 87, 1-{5-[2-(5,8-Dimethyl-[1,2,4]triazolo[1,5-a]pyrazin-2-yl)-ethyl]-1-methyl-1H-[1,2,4]triazol-3-yl}-pyrrolidin-2-one], for which the IC50 amounted to 288 nM.

For `CCN(C)c1nc(CCc2nc3c(C)ncc(C)n3n2)n(C)n1` [Example 23, {5-[2-(5,8-Dimethyl-[1,2,4]triazolo[1,5-a]pyrazin-2-yl)-ethyl]-1-methyl-1H-[1,2,4]triazol-3-yl}-ethyl-methyl-amine], the 50% inhibitory concentration (IC50) was determined as 103 nM.

Take `Cc1c(Cl)cc(C(F)(F)F)c2nc(CCc3nc(N4CCCC4)n[nH]3)nn12` [Example 128, 6-Chloro-5-methyl-2-(2-(3-(pyrrolidin-1-yl)-1H-1,2,4-triazol-5-yl)ethyl)-8-(trifluoromethyl)-[1,2,4]triazolo[1,5-a]pyridine]: the IC50 came to 0.72 nM.

The compound `COc1ccc(Cn2nc(CCc3nc4c(Cl)cc(Cl)c(C)n4n3)nc2N2CCCC2)cc1` [Example 62, 6,8-Dichloro-2-(2-(1-(4-methoxybenzyl)-5-(pyrrolidin-1-yl)-1H-1,2,4-triazol-3-yl)ethyl)-5-methyl-[1,2,4]triazolo[1,5-a]pyridine] displayed an IC50 of 3.23 nM.

In turn, `Cc1ncc(C)n2nc(/C=C/c3nc(N4CCCC4)n(C)n3)nc12` [Example 17, 5,8-Dimethyl-2-[2-(1-methyl-5-pyrrolidin-1-yl-1H-[1,2,4]triazol-3-yl)-vinyl]-[1,2,4]triazolo[1,5-a]pyrazine] returned a half-inhibitory concentration (IC50) of 6.72 nM.

With `CCN(c1nc(CCc2nc3c(C)ncc(C)n3n2)n(C)n1)C1CC1` [Example 60, Cyclopropyl-{5-[2-(5,8-dimethyl-[1,2,4]triazolo[1,5-a]pyrazin-2-yl)-ethyl]-1-methyl-1H-[1,2,4]triazol-3-yl}-ethyl-amine], the IC50 turned out to be 186 nM.

As to `Cc1c(Cl)cc(OCC(F)(F)F)c2nc(CCc3nc(N4CCCC4)nn3C)nn12` [Example 98, 6-Chloro-5-methyl-2-[2-(2-methyl-5-pyrrolidin-1-yl-2H-[1,2,4]triazol-3-yl)-ethyl]-8-(2,2,2-trifluoro-ethoxy)-[1,2,4]triazolo[1,5-c]pyridine], the IC50 amounted to 0.51 nM.

In turn, `CCn1nc(C#Cc2nc3c(C)ncc(C)n3n2)nc1N1CCCC1` [Example 47, 2-((1-Ethyl-5-(pyrrolidin-1-yl)-1H-1,2,4-triazol-3-yl)ethynyl)-5,8-dimethyl-[1,2,4]triazolo[1,5-a]pyrazine] showed an IC50 of 4.48 nM.

In the case of `Cc1ncc(C)n2nc(CCc3nc(N4CCC[C@@H]4C(F)(F)F)nn3C)nc12` [Example 114, 5,8-Dimethyl-2-{2-[2-methyl-5-((R)-2-trifluoromethyl-pyrrolidin-1-yl)-2H-[1,2,4]triazol-3-yl]-ethyl}-[1,2,4]triazolo[1,5-a]pyrazine], half-maximal inhibition (IC50) required 34.2 nM.

As for `Cc1cnc(C)n2nc(CCc3nc(N4CCC[C@@H]4C(F)(F)F)nn3C)nc12` [Example 118, 5,8-Dimethyl-2-{2-[2-methyl-5-((R)-2-trifluoromethyl-pyrrolidin-1-yl)-2H-[1,2,4]triazol-3-yl]-ethyl}-[1,2,4]triazolo[1,5-c]pyrimidine], inhibition was half-maximal at 27.4 nM (IC50).

The compound `Cc1c(Cl)cc(C(C)(C)O)c2nc(CCc3nc(N4CCCC4)nn3C)nn12` [Example 80, 2-{6-Chloro-5-methyl-2-[2-(2-methyl-5-pyrrolidin-1-yl-2H-[1,2,4]triazol-3-yl)-ethyl]-[1,2,4]triazolo[1,5-c]pyridin-8-yl}-propan-2-ol] gave a half-inhibitory concentration (IC50) of 76.3 nM.

The compound `COc1ccc(Cn2nc(C#Cc3cnc4ccc(Cl)cc4n3)nc2N2CCCC2)cc1` [Example 133, 7-chloro-2-((1-(4-methoxybenzyl)-5-(pyrrolidin-1-yl)-1H-1,2,4-triazol-3-yl)ethynyl)quinoxaline] had a 50% inhibitory concentration (IC50) of 17.8 nM.

`Cc1nc(C(F)(F)F)n2nc(CCc3nc(N4CCCC4)nn3C)nc2c1C` [Example 103, 7,8-Dimethyl-2-(2-(1-methyl-3-(pyrrolidin-1-yl)-1H-1,2,4-triazol-5-yl)ethyl)-5-(trifluoromethyl)-[1,2,4]triazolo[1,5-c]pyrimidine] came in with a half-maximal inhibitory concentration (IC50) of 10.2 nM.

For `Cc1c(Cl)ccc2nc(CCc3nc(N4CCCC4)nn3C)nn12` [Example 27, 6-Chloro-5-methyl-2-(2-(1-methyl-3-(pyrrolidin-1-yl)-1H-1,2,4-triazol-5-yl)ethyl)-[1,2,4]triazolo[1,5-a]pyridine], the IC50 was 0.98 nM.

Take `Cc1ncc(C)n2nc(CCc3nc(N4CC[C@H](F)C4)nn3C)nc12` [Example 94, 2-{2-[5-((S)-3-Fluoro-pyrrolidin-1-yl)-2-methyl-2H-[1,2,4]triazol-3-yl]-ethyl}-5,8-dimethyl-[1,2,4]triazolo[1,5-a]pyrazin]: the IC50 is 122 nM.

On to `Cc1c(C#N)cc(C#N)c2nc(CCc3nc(N4CCCC4)nn3C)nn12` [Example 78, 5-Methyl-2-[2-(2-methyl-5-pyrrolidin-1-yl-2H-[1,2,4]triazol-3-yl)-ethyl]-[1,2,4]triazolo[1,5-c]pyridine-6,8-dicarbonitrile], for which it took 30.6 nM to reach half-maximal inhibition (IC50).

`CCn1nc(N2CCCC2)nc1CCc1nc2c(C)ncc(C)n2n1` [Example 2, 2-[2-(2-Ethyl-5-pyrrolidin-1-yl-2H-[1,2,4]triazol-3-yl)-ethyl]-5,8-dimethyl-[1,2,4]triazolo[1,5-a]pyrazine] returned an IC50 of 5.57 nM.

For `Cc1ncc(C)n2nc(CCc3nc(N4CCC5(CC5)C4)nn3C)nc12` [Example 92, 2-{2-[5-(5-Aza-spiro[2.4]hept-5-yl)-2-methyl-2H-[1,2,4]triazol-3-yl]-ethyl}-5,8-dimethyl-[1,2,4]triazolo[1,5-a]pyrazine], the IC50 was determined as 13.9 nM.

Consider `Cc1cnc(C)n2nc(/C=C/c3nc(N4CCC4)nn3C)nc12` [Example 81, 2-[(E)-2-(5-Azetidin-1-yl-2-methyl-2H-[1,2,4]triazol-3-yl)-vinyl]-5,8-dimethyl-[1,2,4]triazolo[1,5-c]pyrimidine], for which the IC50 amounted to 74.4 nM.

In turn, `Cc1ncc(C)n2nc(CCc3nc(N4CCCC4C)nn3C)nc12` (stereo not drawn) [Example 51, 5,8-Dimethyl-2-{2-[2-methyl-5-(2-methyl-pyrrolidin-1-yl)-2H-[1,2,4]triazol-3-yl]-ethyl}-[1,2,4]triazolo[1,5-a]pyrazine] gave an IC50 of 28.4 nM.

Consider `Cn1nc(N2CCCC2)nc1CCc1nc2c(Cl)cc(C(F)(F)F)cn2n1` [Example 54, 8-Chloro-2-(2-(1-methyl-3-(pyrrolidin-1-yl)-1H-1,2,4-triazol-5-yl)ethyl)-6-(trifluoromethyl)-[1,2,4]triazolo[1,5-a]pyridine], for which the 50% inhibitory concentration (IC50) stood at 105 nM.

Compound `Cc1ncc(C)n2nc(C#Cc3nc(N4CCCC4)nn3C)nc12` [Example 108, 5,8-Dimethyl-2-(2-methyl-5-pyrrolidin-1-yl-2H-[1,2,4]triazol-3-ylethynyl)-[1,2,4]triazolo[1,5-a]pyrazine] came in with an IC50 of 0.8 nM.

Compound `Cc1nc(C)c2nc(CCc3nc(N4CCCC4)nn3C)nn2c1C` [Example 41, 5,6,8-Trimethyl-2-(2-(1-methyl-3-(pyrrolidin-1-yl)-1H-1,2,4-triazol-5-yl)ethyl)-[1,2,4]triazolo[1,5-a]pyrazine] yielded an IC50 of 37.3 nM.

`Cc1ncc(C)n2nc(CCc3nc(N4CCCC4)n(CC4CC4)n3)nc12` [Example 117b, 2-[2-(1-Cyclopropylmethyl-5-pyrrolidin-1-yl-1H-[1,2,4]triazol-3-yl)-ethyl]-5,8-dimethyl-[1,2,4]triazolo[1,5-a]pyrazine] gave an IC50 of 6.69 nM.

Regarding `CCn1nc(CCc2nc3c(C)ncc(C)n3n2)nc1N1CCCC1` [Example 48, 2-(2-(1-Ethyl-5-(pyrrolidin-1-yl)-1H-1,2,4-triazol-3-yl)ethyl)-5,8-dimethyl-[1,2,4]triazolo[1,5-a]pyrazine], the IC50 came out at 28.5 nM.

As to `COc1ccc(Cn2nc(C#Cc3nc4cc(Cl)ccn4n3)nc2N2CCCC2)cc1` [Example 19, 7-Chloro-2-[1-(4-methoxy-benzyl)-5-pyrrolidin-1-yl-1H-[1,2,4]triazol-3-ylethynyl]-[1,2,4]triazolo[1,5-a]pyridine], the IC50 is 477 nM.
